Source: PubChem BioAssay (NCI)
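Abbreviation: GI50, concentration required for 50% inhibition of growth. TGI: concentration producing complete growth inhibition.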

Columns and labels:
Assay in all cases: NCI anticancer screen, dose series, 384-well format
U251 glioblastoma = system: U251 glioblastoma
UO-31 renal = system: UO-31 renal
NCI-H322M lung = system: NCI-H322M lung
PC-3 prostate = system: PC-3 prostate
A498 renal = system: A498 renal
TK-10 renal = system: TK-10 renal
SR leukemia = system: SR leukemia
HOP-62 NSCLC = system: HOP-62 NSCLC
K-562 leukemia = system: K-562 leukemia
RXF 393 renal = system: RXF 393 renal
NCI-H226 lung = system: NCI-H226 lung
NCI-H460 NSCLC = system: NCI-H460 NSCLC
COLO 205 colon = system: COLO 205 colon
MOLT-4 leukemia = system: MOLT-4 leukemia
786-0 renal = system: 786-0 renal
SK-MEL-28 melanoma = system: SK-MEL-28 melanoma
ACHN renal = system: ACHN renal
MALME-3M melanoma = system: MALME-3M melanoma
HCC-2998 colon = system: HCC-2998 colon
A549 NSCLC = system: A549 NSCLC
SN12C renal = system: SN12C renal
OVCAR-8 ovarian = system: OVCAR-8 ovarian
HOP-92 NSCLC = system: HOP-92 NSCLC
MCF7 breast = system: MCF7 breast
T-47D breast = system: T-47D breast
SNB-19 CNS = system: SNB-19 CNS
SF-268 CNS = system: SF-268 CNS
SF-539 CNS = system: SF-539 CNS
MDA-MB-231 breast = system: MDA-MB-231 breast
OVCAR-5 ovarian = system: OVCAR-5 ovarian
UACC-257 melanoma = system: UACC-257 melanoma
NCI/ADR-RES ovarian = system: NCI/ADR-RES ovarian
IGROV1 ovarian = system: IGROV1 ovarian
LOX IMVI melanoma = system: LOX IMVI melanoma
NCI-H23 lung = system: NCI-H23 lung
BT-549 breast = system: BT-549 breast
OVCAR-4 ovarian = system: OVCAR-4 ovarian
DU-145 prostate = system: DU-145 prostate
SW-620 colon = system: SW-620 colon
M14 melanoma = system: M14 melanoma
SK-OV-3 ovarian = system: SK-OV-3 ovarian
SF-295 CNS = system: SF-295 CNS
MDA-MB-435 melanoma = system: MDA-MB-435 melanoma
UACC-62 melanoma = system: UACC-62 melanoma
RPMI-8226 leukemia = system: RPMI-8226 leukemia
OVCAR-3 ovarian = system: OVCAR-3 ovarian
SK-MEL-5 melanoma = system: SK-MEL-5 melanoma
CAKI-1 renal = system: CAKI-1 renal
CCRF-CEM leukemia = system: CCRF-CEM leukemia
SK-MEL-2 melanoma = system: SK-MEL-2 melanoma
HL-60(TB) leukemia = system: HL-60(TB) leukemia
HCT-15 colon = system: HCT-15 colon
HT29 colon = system: HT29 colon
HCT-116 colon = system: HCT-116 colon
NCI-H522 lung = system: NCI-H522 lung
KM12 colon = system: KM12 colon
MDA-MB-468 breast = system: MDA-MB-468 breast

**Q.** Which results are given for `CNC(=O)n1ccc2cc(Oc3ccnc(NC(=O)c4ccc(C5CCN(CCO)CC5)cc4)c3)c(OCCOC)cc21`?
**A.** GI50 (U251 glioblastoma): 1.56 µM; TGI (U251 glioblastoma): 3.11 µM; GI50 (UO-31 renal): 0.498 µM; TGI (UO-31 renal): 1.74 µM; GI50 (NCI-H322M lung): 1.83 µM; TGI (NCI-H322M lung): 4.69 µM; GI50 (PC-3 prostate): 2.31 µM; TGI (PC-3 prostate): 4.65 µM; GI50 (A498 renal): 1.26 µM; TGI (A498 renal): 2.96 µM; GI50 (TK-10 renal): 1.96 µM; TGI (TK-10 renal): 4.44 µM; GI50 (SR leukemia): 0.83 µM; TGI (SR leukemia): 2.05 µM; GI50 (HOP-62 NSCLC): 2.12 µM; TGI (HOP-62 NSCLC): 4.61 µM; GI50 (K-562 leukemia): 0.186 µM; TGI (K-562 leukemia): 0.451 µM; GI50 (RXF 393 renal): 0.304 µM; TGI (RXF 393 renal): 0.913 µM; GI50 (NCI-H226 lung): 0.0663 µM; TGI (NCI-H226 lung): 2.18 µM; GI50 (NCI-H460 NSCLC): 1.65 µM; TGI (NCI-H460 NSCLC): 3.1 µM; GI50 (COLO 205 colon): 2.27 µM; TGI (COLO 205 colon): 5.23 µM; GI50 (MOLT-4 leukemia): 1.4 µM; TGI (MOLT-4 leukemia): 2.7 µM; GI50 ([…]-0 renal): 1.12 µM; TGI (786-0 renal): 2.43 µM; GI50 (SK-MEL-28 melanoma): 1.84 µM; TGI (SK-MEL-28 melanoma): 3.25 µM; GI50 (ACHN renal): 1.73 µM; TGI (ACHN renal): 3.31 µM; GI50 (MALME-3M melanoma): 1.83 µM; TGI (MALME-3M melanoma): 3.24 µM; GI50 (HCC-2998 colon): 2.24 µM; TGI (HCC-2998 colon): 4.07 µM; GI50 (A549 NSCLC): 3.21 µM; TGI (A549 NSCLC): 11.1 µM; GI50 (SN12C renal): 3.5 µM; TGI (SN12C renal): 9.77 µM; GI50 (OVCAR-8 ovarian): 1.82 µM; TGI (OVCAR-8 ovarian): 3.3 µM; GI50 (HOP-92 NSCLC): 1.65 µM; TGI (HOP-92 NSCLC): 3.55 µM; GI50 (MCF7 breast): 1.35 µM; TGI (MCF7 breast): 3.3 µM; GI50 (T-47D breast): 1.08 µM; TGI (T-47D breast): 2.3 µM; GI50 (SNB-19 CNS): 3.61 µM; TGI (SNB-19 CNS): 11.8 µM; GI50 (SF-268 CNS): 1.77 µM; TGI (SF-268 CNS): 3.65 µM; GI50 (SF-539 CNS): 1.02 µM; TGI (SF-539 CNS): 2.19 µM; GI50 (MDA-MB-231 breast): 1.65 µM; TGI (MDA-MB-231 breast): 3.17 µM; GI50 (OVCAR-5 ovarian): 1.97 µM; TGI (OVCAR-5 ovarian): 7.92 µM; GI50 (UACC-257 melanoma): 1.42 µM; TGI (UACC-257 melanoma): 2.73 µM; GI50 (NCI/ADR-RES ovarian): 4.83 µM; TGI (NCI/ADR-RES ovarian): 16.6 µM; GI50 (IGROV1 ovarian): 3.48 µM; TGI (IGROV1 ovarian): 14 µM; GI50 (LOX IMVI melanoma): 1.72 µM; TGI (LOX IMVI melanoma): 3.11 µM; GI50 (NCI-H23 lung): 3.86 µM; TGI (NCI-H23 lung): 13.4 µM; GI50 (BT-549 breast): 1.37 µM; TGI (BT-549 breast): 3.06 µM; GI50 (OVCAR-4 ovarian): 1.38 µM; TGI (OVCAR-4 ovarian): 2.83 µM; GI50 (DU-145 prostate): 3.6 µM; TGI (DU-145 prostate): 12.4 µM; GI50 (SW-620 colon): 3.01 µM; TGI (SW-620 colon): 4.96 µM; GI50 (M14 melanoma): 1.91 µM; TGI (M14 melanoma): 3.33 µM; GI50 (SK-OV-3 ovarian): 1.83 µM; TGI (SK-OV-3 ovarian): 3.62 µM; GI50 (SF-295 CNS): 1.82 µM; TGI (SF-295 CNS): 3.76 µM; GI50 (MDA-MB-435 melanoma): 2.25 µM; TGI (MDA-MB-435 melanoma): 4.05 µM; GI50 (UACC-62 melanoma): 1.75 µM; TGI (UACC-62 melanoma): 3.16 µM; GI50 (RPMI-8226 leukemia): 1.52 µM; TGI (RPMI-8226 leukemia): 2.86 µM; GI50 (OVCAR-3 ovarian): 2.03 µM; TGI (OVCAR-3 ovarian): 3.65 µM; GI50 (SK-MEL-5 melanoma): 1.48 µM; TGI (SK-MEL-5 melanoma): 2.81 µM; GI50 (CAKI-1 renal): 2.77 µM; TGI (CAKI-1 renal): 5.47 µM; GI50 (CCRF-CEM leukemia): 1.74 µM; TGI (CCRF-CEM leukemia): 3.13 µM; GI50 (SK-MEL-2 melanoma): 1.59 µM; TGI (SK-MEL-2 melanoma): 2.99 µM; GI50 (HL-60(TB) leukemia): 2.48 µM; TGI (HL-60(TB) leukemia): 3.95 µM; GI50 (HCT-15 colon): 1.67 µM; TGI (HCT-15 colon): 3.18 µM; GI50 (HT29 colon): 0.171 µM; TGI (HT29 colon): 0.699 µM; GI50 (HCT-116 colon): 1.32 µM; TGI (HCT-116 colon): 2.65 µM; GI50 (NCI-H522 lung): 2.13 µM; TGI (NCI-H522 lung): 3.85 µM; GI50 (KM12 colon): 1.84 µM; TGI (KM12 colon): 3.65 µM; GI50 (MDA-MB-468 breast): 1.86 µM; TGI (MDA-MB-468 breast): 3.28 µM
